EC50 and CC50 data for 26 compounds are collected here from patent US20190375708A1 (VenatoRx Pharmaceuticals, Inc., priority 2018, published 2019).

The structures appear in SMILES notation.

One may read the EC50 as the midpoint of the concentration-response curve. By CC50 is commonly meant the concentration at which the toxic effect on the cells reaches its halfway point.

The test system of data set [1] is HBV replication in HepAD38 cells. The data set is described as follows: Anti-HBV replication assay in HepAD38 cells (QPCR of extracellular HBV DNA). The data set is classed as cell-based, HBV (genotype D, serotype ayw). Conditions: Hepatitis B virus, 168 h, 7 days incubation, extracellular HBV DNA by QPCR, read-out: Anti-HBV EC50. The gist of the method: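 HepAD38 cells (HepG2 carrying tet-repressible HBV genotype D genome) induced by tetracycline withdrawal, treated 7 days at 37 °C with compound ([…], 1-log10 dilutions). Extracellular HBV DNA quantified by QPCR against a standard curve, normalised to DMSO; EC50 from 4-parameter fit.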

The nature of data set [2]: In vitro cytotoxicity assay (MTT cell viability) in HepG2 cells. Conditions: human. The data set is classed as cell-based, human. Put shortly: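 CC50 values reflect loss of HepG2 viability after a 7-day exposure at 37 °C, 5% CO2. After 3-4 h with MTT, solubilized formazan was quantified at 492 nm relative to vehicle wells.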

For the compound `CNC(=O)[C@H](NC(=O)C(=O)c1c(C)c(C(=O)Nc2ccc(F)c(C)c2)c(C)n1C)C(C)(C)C` [Example 60, (R)-5-(2-((3,3-dimethyl-1-(methylamino)-1-oxobutan-2-yl)amino)-2-oxoacetyl)-N-(4-fluoro-3-methylphenyl)-1,2,4-trimethyl-1H-pyrrole-3-carboxamide], the EC50 in data set [1] is less than 50 nM. In data set [2], this compound registered a CC50 at 7 days of more than 30000 nM.
Taken in the same sequence, the figures for `CC(C)(O)CNC(=O)C(=O)c1c(Cl)c(C(=O)Nc2ccnc(F)c2)c2n1CCCC2` [Example 530, 2-chloro-N-(22-fluoropyridin-4-yl)-3-(22-((2-hydroxy-2-methylpropyl)amino)-2-oxoacetyl)-5,6,7,8-tetrahydroindolizine-1-carboxamide] were more than 1000 nM and more than 30000 nM.
`Cc1cc(NC(=O)c2c(Cl)c(C(=O)C(=O)N[C@H](C)C(F)(F)F)n3c2CCCC3)cnc1F` [Example 732]: the EC50 in data set [1] fell in the range of 50 to 499 nM. Also, the cytotoxic concentration (CC50) at 7 days in data set [2] is more than 30000 nM.
The matching figures for `Cc1cc(NC(=O)c2c(C)c(C(=O)C(=O)N[C@H](C(N)=O)[C@@H](C)O)n(C)c2C)ccc1F` [Example 42, 5-(2-(((2S,3R)-1-amino-3-hydroxy-1-oxobutan-2-yl)amino)-2-oxoacetyl)-N-(4-fluoro-3-methylphenyl)-1,2,4-trimethyl-1H-pyrrole-3-carboxamide]: less than 50 nM and more than 30000 nM.
As for `Cc1cc(NC(=O)c2c(C)c(C(=O)C(=O)N[C@]3(C)CC[C@@H](O)CC3)n(C)c2C)ccc1F` [Example 273, N-(4-fluoro-3-methylphenyl)-5-(2-(((1r,4r)-4-hydroxy-1-methylcyclohexyl)amino)-2-oxoacetyl)-1,2,4-trimethyl-1H-pyrrole-3-carboxamide], the EC50 in data set [1] is less than 50 nM. Moreover, the CC50 at 7 days in data set [2] was more than 30000 nM.
Taken in the same sequence, the figures for `Cc1cc(NC(=O)c2c(C)c(C(=O)C(=O)NC(C)(C)C)n3c2CCCC3)ccc1F` [Example 434, 3-(2-(tert-butylamino)-2-oxoacetyl)-N-(4-fluoro-3-methylphenyl)-2-methyl-5,6,7,8-tetrahydroindolizine-1-carboxamide] were less than 50 nM and more than 30000 nM.
Taken in the same sequence, the figures for `Cc1cc(NC(=O)c2c(C)c(C(=O)C(=O)N[C@@H]3c4ccccc4C[C@@H]3O)n(C)c2C)ccc1F` [Example 258, N-(4-fluoro-3-methylphenyl)-5-(2-(((1R,2S)-2-hydroxy-2,3-dihydro-1H-inden-1-yl)amino)-2-oxoacetyl)-1,2,4-trimethyl-1H-pyrrole-3-carboxamide] were less than 50 nM and 5000 to 30000 nM.
For the compound `Cc1cc(NC(=O)c2c(C)c(C(=O)C(=O)NCCN)n(C)c2C)ccc1F` [Example 257, 5-(2-((2-aminoethyl)amino)-2-oxoacetyl)-N-(4-fluoro-3-methylphenyl)-1,2,4-trimethyl-1H-pyrrole-3-carboxamide], the EC50 in data set [1] lay within 50 to 499 nM. The same compound showed a CC50 at 7 days in data set [2] of 5000 to 30000 nM.
As to `Cc1cc(NC(=O)c2c(C)c(C(=O)C(=O)N[C@H]3C[C@@H](O)C3(C)C)n(C)c2C)ccc1F` [Example 302, N-(4-fluoro-3-methylphenyl)-5-(2-(((1S,3R)-3-hydroxy-2,2-dimethylcyclobutyl)amino)-2-oxoacetyl)-1,2,4-trimethyl-1H-pyrrole-3-carboxamide], in data set [1], the EC50 is less than 50 nM. For the same compound, the CC50 at 7 days in data set [2] was more than 30000 nM.
`CC[C@@H](CO)NC(=O)C(=O)c1c(OC)c(C(=O)Nc2ccc(F)c(F)c2)c(C)n1C` [Example 385, (S)-N-(3,4-difluorophenyl)-5-(2-((1-hydroxybutan-2-yl)amino)-2-oxoacetyl)-4-methoxy-1,2-dimethyl-1H-pyrrole-3-carboxamide]: the EC50 in data set [1] was more than 1000 nM. In addition, in data set [2], the CC50 at 7 days is more than 30000 nM.
The matching figures for `Cc1c(C(=O)NC2CCCC2)c2n(c1C(=O)C(=O)NC(C)(C)CO)CCCC2` [Example 754]: 50 to 499 nM and more than 30000 nM.
With `COC(=O)[C@@H](NC(=O)C(=O)c1c(C)c(C(=O)Nc2ccc(F)c(C)c2)c(C)n1C)[C@@H](C)O` [Example 27, methyl (2-(4-((4-fluoro-3-methylphenyl)carbamoyl)-1,3,5-trimethyl-1H-pyrrol-2-yl)-2-oxoacetyl)-L-threoninate], in data set [1], the EC50 is more than 1000 nM. In data set [2], this compound returned a CC50 at 7 days of more than 30000 nM.
Taken in the same sequence, the figures for `Cc1c(C(=O)Nc2ccc(F)c(F)c2)c(Cl)c(C(=O)C(=O)NC2(C(F)(F)F)CC2)n1C` [Example 376, 4-chloro-N-(3,4-difluorophenyl)-1,2-dimethyl-5-(2-oxo-2-((1-(trifluoromethyl)cyclopropyl)amino)acetyl)-1H-pyrrole-3-carboxamide] were less than 50 nM and 5000 to 30000 nM.
Taken in the same sequence, the figures for `Cc1c(C(=O)Nc2ccc(F)nc2)c(C)n(C)c1C(=O)C(=O)N[C@H]1C2CC3CC1C[C@](O)(C3)C2` [Example 92, N-(6-fluoropyridin-3-yl)-5-(2-(((1R,2s,3S,5s,7s)-5-hydroxyadamantan-2-yl)amino)-2-oxoacetyl)-1,2,4-trimethyl-1H-pyrrole-3-carboxamide] were 50 to 499 nM and more than 30000 nM.
For the compound `Cc1csc(NC(=O)C(=O)c2c(C)c(C(=O)Nc3ccc(F)c(C)c3)c(C)n2C)n1` [Example 211, N-(4-fluoro-3-methylphenyl)-1,2,4-trimethyl-5-(2-((4-methylthiazol-2-yl)amino)-2-oxoacetyl)-1H-pyrrole-3-carboxamide], the EC50 in data set [1] is less than 50 nM. In data set [2], this compound yielded a CC50 at 7 days of more than 30000 nM.
The matching figures for `Cc1[nH]c(C(=O)C(=O)NC(C)(C)C)c(C)c1C(=O)Nc1ccc(F)c(Cl)c1` [Example 3, 5-(2-(tert-butylamino)-2-oxoacetyl)-N-(3-chloro-4-fluorophenyl)-2,4-dimethyl-1H-pyrrole-3-carboxamide]: less than 50 nM and 5000 to 30000 nM.
The matching figures for `CO[C@H]1CC[C@@H](NC(=O)C(=O)c2c(C)c(C(=O)Nc3cnc(F)c(C)c3)c(C)n2C)CC1` [Example 344, N-(6-fluoro-5-methylpyridin-3-yl)-5-(2-(((1s,4s)-4-methoxycyclohexyl)amino)-2-oxoacetyl)-1,2,4-trimethyl-1H-pyrrole-3-carboxamide]: 50 to 499 nM and more than 30000 nM.
Taken in the same sequence, the figures for `Cc1cc(NC(=O)c2c(Cl)c(C(=O)C(=O)NC(C)(C)C(F)(F)F)n3c2CCCC3)cnc1F` [Example 730, 2-chloro-N-(6-fluoro-5-methylpyridin-3-yl)-3-(2-oxo-2-((1,1,1-trifluoro-2-methylpropan-2-yl)amino)acetyl)-5,6,7,8-tetrahydroindolizine-1-carboxamide] were 50 to 499 nM and more than 30000 nM.
Take `Cc1cc(NC(=O)c2cc(C(=O)C(=O)NC3(C(F)(F)F)CC3)n3c2CCCC3)ccc1F` [Example 402, N-(4-fluoro-3-methylphenyl)-3-(2-oxo-2-((1-(trifluoromethyl)cyclopropyl)amino)acetyl)-5,6,7,8-tetrahydroindolizine-1-carboxamide]: the EC50 in data set [1] lay within 50 to 499 nM. The compound further displayed a half-maximal cytotoxic concentration (CC50) at 7 days in data set [2] of more than 30000 nM.
The matching figures for `Cc1cc(NC(=O)c2c(C)c(C(=O)C(=O)N[C@@H]3CCOC[C@H]3O)n(C)c2C)cnc1F` [Example 164, N-(6-fluoro-5-methylpyridin-3-yl)-5-(2-(((3S,4R)-3-hydroxytetrahydro-2H-pyran-4-yl)amino)-2-oxoacetyl)-1,2,4-trimethyl-1H-pyrrole-3-carboxamide]: 500 to 1000 nM and more than 30000 nM.
In the case of `Cc1cc(NC(=O)c2cc(C(=O)C(=O)NC(C)(C)C)n3c2CN(C(=O)OC(C)(C)C)CC3)ccc1F` [Example 587, tert-butyl 6-(2-(tert-butylamino)-2-oxoacetyl)-8-((4-fluoro-3-methylphenyl)carbamoyl)-3,4-dihydropyrrolo[1,2-a]pyrazine-2(1H)-carboxylate], in data set [1], the 50% effective concentration (EC50) is 50 to 499 nM. Besides, the cytotoxic concentration (CC50) at 7 days in data set [2] was more than 30000 nM.
Taken in the same sequence, the figures for `Cc1cc(NC(=O)c2c(Cl)c(C(=O)C(=O)NCC(C)(C)O)n3c2CCC3)ccc1F` [Example 550, 6-chloro-N-(4-fluoro-3-methylphenyl)-5-(2-((2-hydroxy-2-methylpropyl)amino)-2-oxoacetyl)-2,3-dihydro-1H-pyrrolizine-7-carboamide] were less than 50 nM and more than 30000 nM.
Turning to `Cc1c(C(=O)Nc2cccc(Cl)c2)c(C)n(C)c1C(=O)C(=O)NC1(C(F)(F)F)CCOCC1` [Example 604, N-(3-chlorophenyl)-1,2,4-trimethyl-5-(3-oxo-2-((4-(trifluoromethyl)tetrahydro-2H-pyran-4-yl)amino)acetyl)-1H-pyrrole-3-carboxamide], in data set [1], the EC50 was less than 50 nM. In data set [2], this compound registered a CC50 at 7 days of 5000 to 30000 nM.
On to `Cc1csc(NC(=O)C(=O)c2c(C)c(C(=O)Nc3ccc(F)c(Cl)c3)c(C)n2C)n1` [Example 316, N-(3-chloro-4-fluorophenyl)-1,2,4-trimethyl-5-(2-((4-methylthiazol-2-yl)amino)-2-oxoacetyl)-1H-pyrrole-3-carboxamide], for which the EC50 in data set [1] is less than 50 nM. Also, the CC50 at 7 days in data set [2] is more than 30000 nM.
The matching figures for `CC(C)(C)NC(=O)C(=O)c1cc(C(=O)Nc2ccc(F)c(C(F)F)c2)c2n1CCCC2` [Example 400, 3-(2-(tert-butylamino)-2-oxoacetyl)-N-(3-(difluoromethyl)-4-fluorophenyl)-5,6,7,8-tetrahydroindolizine-1-carboxamide]: 50 to 499 nM and more than 30000 nM.
Taken in the same sequence, the figures for `Cc1cc(NC(=O)c2cc(C(=O)C(=O)NC(C)(C)C)n(C)c2)ccc1F` [Example 1, 5-(2-(tert-butylamino)-2-oxocetyl)-N-(4-fluoro-3-methylphenyl)-1-methyl-1H-pyrrole-3-carboxamide] were less than 50 nM and more than 30000 nM.
